≈ marks a conversion by molar mass, not a printed value.
Conditions: buffer; pH 7.4; 200.0 µM

**Q.** With `CCOc1ccc(C(=O)OCC(=O)NC2CCCC2)cc1OCC` as the molecule, how does the solubility kinetic read?
**A.** 17.7 µg/mL (≈ 52.8 µM)

**Q.** With `Cc1ccccc1NC(=O)C1CC(=O)OC12CCOC(C)(C)C2` (configuration not stated) as the molecule, how does the solubility kinetic read?
**A.** > 47.6 µg/mL

**Q.** Which solubility kinetic does the source give for `CCC1=C([N+](=O)[O-])C(c2ccc3c(c2)OCO3)NC(=O)N1` (configuration not stated) here?
**A.** > 43.7 µg/mL

**Q.** With `CC1CN(/C=C/C=O)C(C)CC1OC(=O)c1ccccc1` (configuration not stated) as the molecule, how does the solubility kinetic read?
**A.** > 43.1 µg/mL

**Q.** For `COc1ccc(S(=O)(=O)Oc2cc(C(=S)N3CCOCC3)ccc2OC)cc1`, which solubility kinetic is on record?
**A.** 25.4 µg/mL (≈ 60 µM)

**Q.** With `O=c1oc2ccccc2nc1/C=C(\O)c1ccc(Br)cc1` as the molecule, how does the solubility kinetic read?
**A.** 19 µg/mL (≈ 55.2 µM)

**Q.** For `Cc1nc2oc3ccccc3c(=O)c2cc1C(=O)O`, which solubility kinetic is on record?
**A.** > 38.3 µg/mL

**Q.** For `CC(=O)Oc1ccc(-c2nc3cc(Cl)ccc3c(=O)o2)cc1`, which solubility kinetic is on record?
**A.** 1.7 µg/mL (≈ 5.38 µM)

**Q.** For `N#Cc1ccc(CN2C(=O)NC3(CCCCCC3)C2=O)cc1`, which solubility kinetic is on record?
**A.** 25.7 µg/mL (≈ 86.4 µM)

**Q.** For `Fc1ccc(CNC(=S)Nc2ccccc2F)cc1`, which solubility kinetic is on record?
**A.** > 41.7 µg/mL

**Q.** With `O=C(NCCCSc1ccccc1)c1cccnc1` as the molecule, how does the solubility kinetic read?
**A.** > 40.9 µg/mL

**Q.** With `CC1CCN(C(=O)c2ccc(NC(=O)c3ccccc3)cc2)CC1` as the molecule, how does the solubility kinetic read?
**A.** > 48.4 µg/mL

**Q.** Which solubility kinetic does the source give for `Cc1ccc(N2C(=O)[C@@H]3C(c4cccnc4)=NO[C@@H]3C2=O)cc1` here?
**A.** > 46.1 µg/mL

**Q.** Which solubility kinetic does the source give for `CCS(=O)(=O)N1CCN=C1SCc1cccc(F)c1` here?
**A.** > 45.4 µg/mL

**Q.** Which solubility kinetic does the source give for `Cc1cc2cc(CNC(=S)NCc3ccccc3)ccc2n1C` here?
**A.** 1.8 µg/mL (≈ 5.56 µM)

**Q.** With `O=C(COC(=O)Cc1ccc(Br)cc1)NCc1cccs1` as the molecule, how does the solubility kinetic read?
**A.** 11.8 µg/mL (≈ 32 µM)

**Q.** Which solubility kinetic does the source give for `COc1ccc(CN2CCSc3sccc3C2=O)cc1` here?
**A.** > 45.8 µg/mL

**Q.** With `COc1cc(/C=C/c2nc3ccccc3c(=O)[nH]2)ccc1OC(F)F` as the molecule, how does the solubility kinetic read?
**A.** 1.9 µg/mL (≈ 5.52 µM)

**Q.** With `COc1ccc(C(=O)CSc2nc(C)cc(C)n2)cc1C` as the molecule, how does the solubility kinetic read?
**A.** 17.4 µg/mL (≈ 57.5 µM)

**Q.** Which solubility kinetic does the source give for `O=C(/C=C/C=C/c1ccccc1)CC1(O)C(=O)Nc2ccccc21` (configuration not stated) here?
**A.** > 47.9 µg/mL

**Q.** For `CCOC(=O)c1cnc(/N=C/N(C)C)s1`, which solubility kinetic is on record?
**A.** 29.6 µg/mL (≈ 130 µM)

**Q.** With `Cc1cc(C(=O)OCC(=O)N2C(C)CCCC2C)c2ccccc2n1` (configuration not stated) as the molecule, how does the solubility kinetic read?
**A.** > 51.1 µg/mL

**Q.** For `O=C(COC(=O)CCc1ccc(S(=O)(=O)N2CCOCC2)cc1)Nc1ccccc1OC(F)F`, which solubility kinetic is on record?
**A.** 49.5 µg/mL (≈ 99.3 µM)

**Q.** For `O=C(c1ccco1)N1CCN(S(=O)(=O)c2cccc([N+](=O)[O-])c2)CC1`, which solubility kinetic is on record?
**A.** > 54.8 µg/mL

**Q.** For `O=C(C1CCCN(Cc2ccccc2F)C1)N1CCCC1.O=C(O)C(=O)O` (configuration not stated), which solubility kinetic is on record?
**A.** 43.2 µg/mL

**Q.** With `CCCCN(C)CCNC(=O)C(NC(=O)C1CCC(C)CC1)C(C)C` (configuration not stated) as the molecule, how does the solubility kinetic read?
**A.** > 53 µg/mL

**Q.** With `Cc1nc(N)[nH]c(=O)c1Oc1cccc(C(F)(F)F)c1` as the molecule, how does the solubility kinetic read?
**A.** 35.6 µg/mL (≈ 125 µM)

**Q.** With `NC(=O)c1ccccc1OCC(=O)N1CCCc2ccccc21` as the molecule, how does the solubility kinetic read?
**A.** > 46.6 µg/mL

**Q.** For `CC(SCc1ccccc1)C(=O)Nc1ccc(F)cc1` (configuration not stated), which solubility kinetic is on record?
**A.** > 43.4 µg/mL

**Q.** For `CN(CC(=O)Nc1ccccc1F)Cc1cccs1`, which solubility kinetic is on record?
**A.** 30.1 µg/mL (≈ 108 µM)

**Q.** With `Cl.O=C(O)C1=CCNCC1` as the molecule, how does the solubility kinetic read?
**A.** > 24.5 µg/mL

**Q.** For `O=C1Cc2ccccc2C(c2ccc(Cl)cc2)N1` (configuration not stated), which solubility kinetic is on record?
**A.** 30.4 µg/mL (≈ 118 µM)

**Q.** For `Cc1ccc(C)c(C(=O)CSc2nc(N)cc(=O)[nH]2)c1`, which solubility kinetic is on record?
**A.** 19.2 µg/mL (≈ 66.4 µM)

**Q.** For `CC(C)CC(=O)NC(=S)Nc1ccc(N2CCCC2)c(Cl)c1`, which solubility kinetic is on record?
**A.** < 0.2 µg/mL

**Q.** Which solubility kinetic does the source give for `CCOc1ccc2nc(SCC(=O)Nc3cc(C)on3)c(C)cc2c1` here?
**A.** < 0.3 µg/mL

**Q.** Which solubility kinetic does the source give for `O=C(OCc1nc2ccccc2s1)c1ccc([N+](=O)[O-])o1` here?
**A.** 1.1 µg/mL (≈ 3.62 µM)

**Q.** Which solubility kinetic does the source give for `Clc1ccc(C(CCN2CCCC2)Cc2ccccc2)cc1` (configuration not stated) here?
**A.** 29.8 µg/mL (≈ 94.9 µM)

**Q.** Which solubility kinetic does the source give for `CCCCOC(=O)N1CCOCCOCCOCC1` here?
**A.** 40.2 µg/mL (≈ 146 µM)

**Q.** With `COc1ccc(Cl)cc1NC(=O)C1CC(c2ccccc2O)=NO1` (configuration not stated) as the molecule, how does the solubility kinetic read?
**A.** 0.9 µg/mL (≈ 2.6 µM)

**Q.** Which solubility kinetic does the source give for `Cc1ccc(Cl)cc1N1CCN(CC(O)COC(C)C)CC1.Cl` (configuration not stated) here?
**A.** > 54.5 µg/mL

**Q.** Which solubility kinetic does the source give for `Cc1cc(C(=O)O/N=C(\N)c2ccc(C(C)(C)C)cc2)no1` here?
**A.** 2.9 µg/mL (≈ 9.62 µM)

**Q.** With `CN(c1ccc(F)cc1)S(=O)(=O)c1ccc(Cl)c(C(=O)OCC(=O)NC2CC2)c1` as the molecule, how does the solubility kinetic read?
**A.** 11.7 µg/mL (≈ 26.5 µM)

**Q.** For `Cc1ccc(NC(=O)NCC(c2ccccc2)N(C)C)cc1` (configuration not stated), which solubility kinetic is on record?
**A.** > 44.6 µg/mL

**Q.** With `c1ccc(Cn2c(NCc3ccncc3)nc3ccccc32)cc1` as the molecule, how does the solubility kinetic read?
**A.** > 47.2 µg/mL

**Q.** Which solubility kinetic does the source give for `O=C(C[n+]1ccc(/C=N/O)cc1)N1CCCCC1.[Cl-]` here?
**A.** > 42.6 µg/mL

**Q.** Which solubility kinetic does the source give for `Fc1ccc(CNc2ccccn2)cc1` here?
**A.** 24.3 µg/mL (≈ 120 µM)

**Q.** With `O=C(NCCCCc1ccccc1)c1cc([N+](=O)[O-])cc([N+](=O)[O-])c1` as the molecule, how does the solubility kinetic read?
**A.** 9.9 µg/mL (≈ 28.8 µM)

Reference: PubChem BioAssay AID1996
